Reference: patent US20260306640A1, “TECHNOLOGIES TARGETING CELL STATES” (Auron Therapeutics, Inc., priority 2023, published 2026)

How the values were obtained:
KAT2A = KAT2A (Homo sapiens, UniProt Q92830); experiment: KAT2A degradation, Western Blot (Jess), NCI-H1048 cells; assay type: cell-based; set-up: degrader, Western blot (Jess); details: NCI-H1048 cells, KAT2A, 24 h, Western Blot, vs DMSO; read-out: KAT2A NCI-H1048 DC50
Procedure: (§1) MOLM-13 cells or NCI-H1048 cells were used for Western Blot analysis of KAT2A degradation. KAT2B degradation can be measured in a similar manner with NCI-H1048 cells.
(§2) H1048 cells were maintained at 37° C. in 5% CO2 and 90% humidity in HITES medium with 5% fetal bovine serum (FBS). HITES medium was […] with the following additions: 0.005 mg/ml Insulin, 0.01 mg/ml Transferrin, 30 nM Sodium selenite, 10 nM Hydrocortisone, 10 nM beta-estradiol, and extra 2 mM L-glutamine (for final concentration of 4.5 mM). Cells were plated in full media at 1 million cells/2 mL in a 6-well tissue culture treated plate with or without compounds for 24 h at 37° C. in 5% CO2.
(§3) MOLM-13 cells or NCI-H1048 cells were washed with PBS, then lysed with RIPA buffer containing 1×protease and phosphatase inhibitors (SantaCruz Biotechnologies Cat #sc-24948A). Protein was isolated by centrifugation at 12,000×g for 10 minutes at 4° C. and supernatant was collected. Protein was quantified via Bradford assay. Samples were diluted to 4 μg lysate in 16 μL RIPA buffer and then 4 μL of Jess Sample Buffer. Samples were heated at 95° C. for 5 minutes. Samples were loaded onto 12-230 kDa Jess™ Separation Module, 8×25 capillary cartridges (SM-W004, Biotechne). Antibodies loaded were: Primary antibody for KAT2A (GCN5L2 (C26A10) Rabbit mAb (3305, CST)) and for KAT2B (PCAF (C14G9)) Rabbit mAb (3378, CST) at 1:1000 and Anti-Rabbit Detection Module for Jess™ (Cat No #DM-001, Biotechne). Signal was detected by chemiluminescence.
(§4) DC50 values were determined from percent reduction of protein as compared to the DMSO control.

KAT2B = KAT2B (Homo sapiens, UniProt Q92831); experiment: KAT2B degradation, Western Blot (Jess), NCI-H1048 cells; assay type: cell-based; set-up: degrader, Western blot (Jess); details: NCI-H1048 cells, KAT2B, 24 h, Western Blot, vs DMSO; read-out: KAT2B NCI-H1048 DC50
KAT2B, sequence (Q92831 whole entry): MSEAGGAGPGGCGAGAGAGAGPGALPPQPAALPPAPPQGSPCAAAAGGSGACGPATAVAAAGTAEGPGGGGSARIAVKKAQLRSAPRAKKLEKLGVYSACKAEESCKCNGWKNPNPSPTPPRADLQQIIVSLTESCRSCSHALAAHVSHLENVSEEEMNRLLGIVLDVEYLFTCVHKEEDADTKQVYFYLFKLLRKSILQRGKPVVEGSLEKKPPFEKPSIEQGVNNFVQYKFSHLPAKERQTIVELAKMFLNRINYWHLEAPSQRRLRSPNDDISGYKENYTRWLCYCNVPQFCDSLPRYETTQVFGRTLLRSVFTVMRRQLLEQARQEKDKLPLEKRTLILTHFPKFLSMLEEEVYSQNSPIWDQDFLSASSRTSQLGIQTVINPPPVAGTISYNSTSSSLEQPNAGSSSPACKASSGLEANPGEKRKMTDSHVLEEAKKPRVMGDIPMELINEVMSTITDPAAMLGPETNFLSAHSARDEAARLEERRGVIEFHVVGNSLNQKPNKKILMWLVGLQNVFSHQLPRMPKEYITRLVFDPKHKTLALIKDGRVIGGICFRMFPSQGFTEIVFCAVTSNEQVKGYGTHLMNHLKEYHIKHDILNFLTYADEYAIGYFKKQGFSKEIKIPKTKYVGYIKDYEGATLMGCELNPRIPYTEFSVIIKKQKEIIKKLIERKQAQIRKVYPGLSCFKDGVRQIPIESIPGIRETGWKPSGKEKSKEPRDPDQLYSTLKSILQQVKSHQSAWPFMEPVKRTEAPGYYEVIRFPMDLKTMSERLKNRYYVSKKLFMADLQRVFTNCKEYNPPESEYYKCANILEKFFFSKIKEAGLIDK
Procedure: as §1, §2, §3, §4

KAT2A, sequence (Q92830 whole entry): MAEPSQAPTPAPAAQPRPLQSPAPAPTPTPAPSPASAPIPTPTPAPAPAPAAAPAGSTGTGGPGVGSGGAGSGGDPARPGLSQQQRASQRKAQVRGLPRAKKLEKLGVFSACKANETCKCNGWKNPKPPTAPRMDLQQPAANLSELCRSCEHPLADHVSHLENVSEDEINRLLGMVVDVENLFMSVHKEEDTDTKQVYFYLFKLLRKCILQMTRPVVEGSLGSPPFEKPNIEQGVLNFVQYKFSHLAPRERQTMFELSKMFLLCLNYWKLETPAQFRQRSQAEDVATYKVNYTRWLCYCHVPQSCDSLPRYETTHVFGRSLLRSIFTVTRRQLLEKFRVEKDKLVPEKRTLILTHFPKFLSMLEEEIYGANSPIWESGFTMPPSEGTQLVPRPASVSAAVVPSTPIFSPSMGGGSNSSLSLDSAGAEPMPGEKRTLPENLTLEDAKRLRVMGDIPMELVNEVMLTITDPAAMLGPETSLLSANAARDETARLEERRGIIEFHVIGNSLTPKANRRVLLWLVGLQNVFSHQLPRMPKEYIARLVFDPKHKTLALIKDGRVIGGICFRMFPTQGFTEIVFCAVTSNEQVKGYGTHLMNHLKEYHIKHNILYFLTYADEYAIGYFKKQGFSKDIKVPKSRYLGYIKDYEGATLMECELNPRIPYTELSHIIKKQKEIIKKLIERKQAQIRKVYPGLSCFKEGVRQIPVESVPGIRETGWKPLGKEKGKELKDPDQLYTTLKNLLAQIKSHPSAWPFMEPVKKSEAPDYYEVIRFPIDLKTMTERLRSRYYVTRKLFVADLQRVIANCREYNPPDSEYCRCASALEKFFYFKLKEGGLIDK

| SMILES | DC50 (KAT2A) [nM] | DC50 (KAT2B) [nM] |
| --- | --- | --- |
| CN1C[C@H](Nc2cnn(C)c(=O)c2Br)C[C@H](c2ccc(CN3Cc4cc5c(cc4C3)C(=O)N(C3CCC(=O)NC3=O)C5=O)cc2)C1 (stereo partly drawn) [Compound 200] | 1 to 30 | > 30 |
| CN1C[C@H](Nc2cnn(C)c(=O)c2Br)C[C@H](c2ccc(C(=O)N3CCN(c4cccc5c4oc(=O)n5C4CCC(=O)NC4=O)CC3)cc2)C1 (stereo partly drawn) [Compound 201] | < 1 | 1 to 30 |
| CN1C[C@H](Nc2cnn(C)c(=O)c2Br)C[C@H](c2ccc(CN3CC(c4ccc5c(c4)C(=O)N(C4CCC(=O)NC4=O)C5=O)C3)cc2)C1 (stereo partly drawn) [Compound 202] | 1 to 30 | > 30 |
| CN1C[C@H](Nc2cnn(C)c(=O)c2Cl)C[C@H](c2ccc(C(=O)N3CCC(Oc4ccc(C5CCC(=O)NC5=O)c(F)c4)CC3)cc2)C1 (stereo partly drawn) [Compound 203] | < 1 | 1 to 30 |
| CN1C[C@H](Nc2cnn(C)c(=O)c2Br)C[C@H](c2ccc(C(=O)N3CCN(C4CCC(N5CCC(=O)NC5=O)CC4)CC3)cc2)C1 (stereo partly drawn) [Compound 204] | > 30 | > 30 |
| CN1C[C@H](Nc2cnn(C)c(=O)c2Br)C[C@H](c2ccc(C(=O)N3CCN(Cc4cnn(C5CCC(=O)NC5=O)c4)CC3)cc2)C1 (stereo partly drawn) [Compound 205] | > 30 | > 30 |
| CN1C[C@H](Nc2cnn(C)c(=O)c2Br)C[C@H](c2ccc(CN3CCN(C4CCC(N5CCC(=O)NC5=O)CC4)CC3)cc2)C1 (stereo partly drawn) [Compound 206] | > 30 | > 30 |
| CN1C[C@H](Nc2cnn(C)c(=O)c2Cl)C[C@H](c2ccc(C(=O)N3CCC4(CC3)CCN(c3cnn(C5CCC(=O)NC5=O)c3)CC4)cc2)C1 (stereo partly drawn) [Compound 207] | < 1 | > 30 |
| CN1C[C@H](Nc2cnn(C)c(=O)c2Cl)C[C@H](c2ccc(C(=O)N3CCC4(CC3)CCN(c3ccc5c(c3)oc(=O)n5C3CCC(=O)NC3=O)CC4)cc2)C1 (stereo partly drawn) [Compound 209] | < 1 | < 1 |
| CN1C[C@H](Nc2cnn(C)c(=O)c2Br)C[C@H](c2ccc(C(=O)N3CCC4(CC3)CCN(c3cnn(C5CCC(=O)NC5=O)c3)CC4)cc2)C1 (stereo partly drawn) [Compound 210] | 1 to 30 | < 1 |
| CN1C[C@H](Nc2cnn(C)c(=O)c2Br)C[C@H](c2ccc(C(=O)N3CCC4(CC3)CCN(c3ccc5c(C6CCC(=O)NC6=O)nn(C)c5c3)CC4)cc2)C1 (stereo partly drawn) [Compound 211] | < 1 | < 1 |
| CN1C[C@H](Nc2cnn(C)c(=O)c2Br)C[C@H](c2ccc(C(=O)N3CCC4(CC3)CCN(c3ccc5nnn(C6CCC(=O)NC6=O)c5c3)CC4)cc2)C1 (stereo partly drawn) [Compound 212] | 1 to 30 | > 30 |
| Cc1cc(N2CCC3(CCN(C(=O)c4ccc([C@H]5C[C@@H](Nc6c(F)nn(C)c(=O)c6Br)CN(C)C5)cc4)CC3)CC2)ccc1C1CCC(=O)NC1=O (stereo partly drawn) [Compound 213] | < 1 | 1 to 30 |
| CN1C[C@H](Nc2cnn(C)c(=O)c2Cl)C[C@H](c2ccc(C(=O)N3CCC4(CC3)CCN(c3ccc5nnn(C6CCC(=O)NC6=O)c5c3)CC4)cc2)C1 (stereo partly drawn) [Compound 214] | 1 to 30 | > 30 |
| CN1C[C@H](Nc2cnn(C)c(=O)c2Cl)C[C@H](c2ccc(C(=O)N3CCC4(CCN(Cc5ccc(C6CCC(=O)NC6=O)c(F)c5)CC4)CC3)cc2)C1 (stereo partly drawn) [Compound 215] | < 1 | < 1 |
| CCn1ncc(N[C@@H]2C[C@H](c3ccc(C(=O)N4CCC5(CC4)CCN(c4ccc(C6CCC(=O)NC6=O)c(C)c4)CC5)cc3)CN(C)C2)c(Br)c1=O (stereo partly drawn) [Compound 216] | < 1 | < 1 |
| CN1C[C@H](Nc2cnn(C)c(=O)c2Br)C[C@H](c2ccc(C(=O)N3CCC4(CC3)CCN(c3ccn(C5CCC(=O)NC5=O)c(=O)c3)CC4)cc2)C1 (stereo partly drawn) [Compound 217] | 1 to 30 | > 30 |
| Cc1cc(C2CCC(=O)NC2=O)c(F)cc1N1CCC2(CCN(C(=O)c3ccc([C@H]4C[C@@H](Nc5cnn(C)c(=O)c5Cl)CN(C)C4)cc3)CC2)CC1 (stereo partly drawn) [Compound 218] | < 1 | 1 to 30 |
| CN1C[C@H](Nc2cnn(C)c(=O)c2Br)C[C@H](c2ccc(C(=O)N3CCC4(CC3)CCN(c3ccc(C5CCC(=O)NC5=O)cc3C(F)(F)F)CC4)cc2)C1 (stereo partly drawn) [Compound 220] | < 1 | 1 to 30 |
| CN1C[C@H](Nc2cnn(C)c(=O)c2Br)C[C@H](c2ccc(C(=O)N3CCC4(CC3)CCN(c3ccc(C5CCC(=O)NC5=O)c(C(F)(F)F)c3)CC4)cc2)C1 (stereo partly drawn) [Compound 221] | > 30 | > 30 |

| SMILES | DC50 (KAT2A) [nM] | DC50 (KAT2B) [nM] |
| --- | --- | --- |
| CN1C[C@H](Nc2cnn(C)c(=O)c2Cl)C[C@H](c2ccc(C(=O)N3CCC4(CC3)CCN(c3ccc(C5CCC(=O)NC5=O)c(C(F)(F)F)c3)CC4)cc2)C1 (stereo partly drawn) [Compound 222] | > 30 | > 30 |
| Cc1c(N[C@@H]2C[C@H](c3ccc(C(=O)N4CCC5(CC4)CCN(c4ccc(C6CCC(=O)NC6=O)c(C(F)(F)F)c4)CC5)cc3)CN(C)C2)cnn(C)c1=O (stereo partly drawn) [Compound 224] | > 30 | > 30 |
| Cc1c(N[C@@H]2C[C@H](c3ccc(C(=O)N4CCC5(CC4)CCN(c4ccc(C6CCC(=O)NC6=O)cc4F)CC5)cc3)CN(C)C2)cnn(C)c1=O (stereo partly drawn) [Compound 225] | < 1 | 1 to 30 |
| Cc1c(N[C@@H]2C[C@H](c3ccc(C(=O)N4CCC5(CC4)CCN(c4ccc(C6CCC(=O)NC6=O)cc4C(F)(F)F)CC5)cc3)CN(C)C2)cnn(C)c1=O (stereo partly drawn) [Compound 226] | < 1 | 1 to 30 |
| CN1C[C@H](Nc2cnn(C)c(=O)c2Cl)C[C@H](c2ccc(C(=O)N3CCC4(CC3)CCN(c3ccc(C5CCC(=O)NC5=O)cc3C(F)(F)F)CC4)cc2)C1 (stereo partly drawn) [Compound 227] | < 1 | 1 to 30 |
| Cc1c(N[C@@H]2C[C@H](c3ccc(C(=O)N4CCC5(CC4)CCN(c4cc(C(F)(F)F)c(C6CCC(=O)NC6=O)cn4)CC5)cc3)CN(C)C2)cnn(C)c1=O (stereo partly drawn) [Compound 230] | 1 to 30 | 1 to 30 |
| CN1C[C@H](Nc2cnn(C)c(=O)c2Cl)C[C@H](c2ccc(C(=O)N3CCC4(CC3)CCN(c3cc(C5CCC(=O)NC5=O)ccn3)CC4)cc2)C1 (stereo partly drawn) [Compound 234] | < 1 | < 1 |
| Cc1c(N2CCC3(CCN(C(=O)c4ccc([C@H]5C[C@@H](Nc6cnn(C)c(=O)c6Br)CN(C)C5)cc4)CC3)CC2)ccc(C2CCC(=O)NC2=O)c1F (stereo partly drawn) [Compound 235] | < 1 | < 1 |
| Cc1c(N2CCC3(CCN(C(=O)c4ccc([C@H]5C[C@@H](Nc6cnn(C)c(=O)c6C)CN(C)C5)cc4)CC3)CC2)ccc(C2CCC(=O)NC2=O)c1F (stereo partly drawn) [Compound 236] | < 1 | 1 to 30 |
| Cc1c(N2CCC3(CCN(C(=O)c4ccc([C@H]5C[C@@H](Nc6cnn(C)c(=O)c6Cl)CN(C)C5)cc4)CC3)CC2)ccc(C2CCC(=O)NC2=O)c1F (stereo partly drawn) [Compound 237] | < 1 | 1 to 30 |
| Cc1c(N[C@@H]2C[C@H](c3ccc(C(=O)N4CCC5(CC4)CCN(c4ccc(C6CCC(=O)NC6=O)nc4)CC5)cc3)CN(C)C2)cnn(C)c1=O (stereo partly drawn) [Compound 241] | < 1 | 1 to 30 |
| Cc1cc(N2CCC3(CCN(C(=O)c4ccc([C@H]5C[C@@H](Nc6cnn(C)c(=O)c6C)CN(C)C5)cc4)CC3)CC2)c(F)cc1C1CCC(=O)NC1=O (stereo partly drawn) [Compound 244] | 1 to 30 | > 30 |
| Cc1cc(N2CCC3(CCN(C(=O)c4ccc([C@H]5C[C@@H](Nc6cnn(C)c(=O)c6C)CN(C)C5)cc4)CC3)CC2)cnc1C1CCC(=O)NC1=O (stereo partly drawn) [Compound 245] | < 1 | 1 to 30 |
| Cc1cc(N2CCC3(CCN(C(=O)c4ccc([C@H]5C[C@@H](Nc6cnn(C)c(=O)c6Br)CN(C)C5)cc4)CC3)CC2)cnc1C1CCC(=O)NC1=O (stereo partly drawn) [Compound 246] | < 1 | < 1 |
| Cc1cc(N2CCC3(CCN(C(=O)c4ccc([C@H]5C[C@@H](Nc6cnn(C)c(=O)c6Cl)CN(C)C5)cc4)CC3)CC2)cnc1C1CCC(=O)NC1=O (stereo partly drawn) [Compound 247] | < 1 | 1 to 30 |
| Cc1cc(C2CCC(=O)NC2=O)ccc1N1CCC2(CCN(C(=O)c3ccc([C@H]4C[C@@H](Nc5cnn(C)c(=O)c5Br)CN(C)C4)cc3)CC2)CC1 (stereo partly drawn) [Compound 248] | < 1 | 1 to 30 |
| Cc1cc(C2CCC(=O)NC2=O)ccc1N1CCC2(CCN(C(=O)c3ccc([C@H]4C[C@@H](Nc5cnn(C)c(=O)c5C)CN(C)C4)cc3)CC2)CC1 (stereo partly drawn) [Compound 249] | < 1 | 1 to 30 |
| CN1C[C@H](Nc2cnn(C)c(=O)c2Cl)C[C@H](c2ccc(C(=O)N3CCC4(CC3)CCN(c3ccc(C5CCC(=O)NC5=O)c(F)c3F)CC4)cc2)C1 (stereo partly drawn) [Compound 251] | < 1 | 1 to 30 |
| Cc1c(N[C@@H]2C[C@H](c3ccc(C(=O)N4CCC5(CC4)CCN(c4ccc(C6CCC(=O)NC6=O)c(F)c4F)CC5)cc3)CN(C)C2)cnn(C)c1=O (stereo partly drawn) [Compound 252] | < 1 | 1 to 30 |
